Results: article PMC10044725, “Antioxidant, Anti-Inflammatory and Anti-Diabetic Activities of Tectona grandis Methanolic Extracts, Fractions, and Isolated Compounds” (Antioxidants, 2023)
Marks after values point to notes of the source that are not given here. Blank lines part the entries; values can stand above or below the molecule they belong to.

How the values were obtained:
[1] = ABTS radical cation scavenging assay (Trolox equivalent); conditions: compounds at 50 μM
Procedure: The ABTS radical cation (ABTS•+) scavenging activities were conducted in accordance with the instructions for the ABTS kit. The total antioxidant activity values were estimated using the Trolox equivalent antioxidant capacity test. The detection concentration of methanolic extract and different fractions was 80 μg/mL, and the detection concentration of compounds (1–23) was 50 μM. […] Then, 190 μL of ABTS working reagent was mixed with 10 μL sample and incubated at room temperature for 5 min. The absorbance was then measured using a microplate reader at 734 nm, and the scavenging activity was calculated according to Equation (2). The blank control group used DMSO to replace the sample. […] The analysis was performed in triplicates, 1.424, 0.0012 was a constant.

[2] = Ferric reducing antioxidant power (FRAP) assay; conditions: compounds at 50 μM; Trolox equivalent
Procedure: The FRAP assay was determined in accordance with the instructions for the FRAP kit. The total antioxidant activity values were estimated using the Trolox equivalent antioxidant capacity test. Initially, the detection concentration of methanolic extract and different fractions was 80 μg/mL, and the detection concentration of compounds (1–23) was 50 μM. Then, 190 μL of FRAP working reagent was mixed with 10 μL sample and incubated at room temperature for 20 min. The absorbance was then measured using a microplate reader at 593 nm, and the scavenging activity was calculated according to Equation (3). The blank control group used DMSO to replace the sample. […] The analysis was performed in triplicates, 0.8054, 0.0134 was a constant.

α-glucosidase = assay: α-Glucosidase inhibition assay (pNPG); assay type: biochemical; conditions: for Inhibitory Rate (%): at a concentration of 50 µM; for IC50: compounds
Procedure: The inhibitory effect on α-glucosidase was measured according to the previous report method with slight modifications. The 20 mM sample dissolved in DMSO was diluted to 50 μM in PBS, 10 μL sample was mixed with 50 μL of 0.1 μ/mL α-glucosidase solution in 0.1 M phosphate buffer (pH 6.5) in a 96-well microplate and 10 μL PBS was used as a blank control. The mixture was incubated at 37 °C for 10 min before adding 40 µL of 5 mM 4-nitrophenyl-α-D-glucopyranoside to each well. After 30 min of incubation at 37 °C, the reaction was terminated by adding 50 μL of 0.1 M Na2CO3 to this mixture. The released 4-nitrophenol absorbance measurements were carried out using a microplate reader (SpectraMax190, USA) at 405 nm.

[3] = DPPH free radical scavenging assay; conditions: isolated compounds; half scavenging concentration; read-out: DPPH Assay SC50
Procedure: The DPPH free radical scavenging activities of T. grandis methanolic extract, different fractions and its compounds were conducted according to Dr. Yang et al.. […] The absorbance was measured using a microplate reader at 517 nm, and ascorbic acid was used as a positive control. The DPPH scavenging activity was calculated according to the following formula: Scavenging activity (%) = [1 − (A1 − A2)/(A3 − A4)] × 100% (1) where A1 is the OD value of the tested samples, A2 is the OD value of the sample control, A3 is the OD value of the negative control and A4 is the OD value of the blank control. The analysis was performed in triplicates and the results were described as SC50 values.

pBR322 DNA = assay: Prevention of AAPH-induced DNA oxidative damage; conditions: AAPH 20 mM; p < 0.0001 vs model
Procedure: The effects of T. grandis methanolic extract, different fractions and its compounds 15, 19 and 23 on the prevention of DNA oxidative damage were carried out using the method of Han et al.. Initially, 8 μL pBR322 DNA (50 μg/mL) in PBS (0.1 M, pH 6.8) was mixed with different concentrations of T. grandis fractions and its compounds (12 μL) and incubated in water at 37 °C for 30 min. Then, 5 μL AAPH (20 mM) was added to the mixture and the reaction continued for 60 min. The control group used the same volume of PBS (0.1 M, pH 6.8) to replace AAPH. The pre-treated samples were mixed with 5 × DNA loading buffer, and the mixture (8 μL) was taken for 1.0% agarose gel electrophoresis for 25 min. After electrophoresis, the gels were stained with ethidium bromide for 20 min. Finally, images were taken using a DNA gel imaging system (ChampChemi 610, Beijing sage creation Co., Ltd. Beijing, China).

IL-6 = IL-6 secretion in LPS-stimulated RAW 264.7 macrophages (ELISA); assay type: cell-based, mouse; conditions: 40 µM, LPS 1 µg/mL, 48 h, vs model control (p < 0.05)
Procedure: (§1) In order to increase cytokine production, macrophages were treated with LPS at a final concentration of 1 µg/mL, and then with T. grandis compounds at 40 µM. The compounds were solubilized in DMEM medium containing 0.1% DMSO. Dexamethasone was employed as a positive control (5 µg/mL). A centrifuge was used to separate the supernatant from the cells after 48 h of incubation, with three replicates per group. Quantification of TNF-α, IL-1β and IL-6 secretion was achieved by following the ELISA manufacturer's instructions. Then, absorbance was measured at 450 nm. Relative TNF-α, IL-1β and IL-6 expression was calculated according to Equation (4). Following the inflammatory factor test, cell viability was detected by CellTiter96® Aqueous One Solution Cell Proliferation Assay. Then, 20 μL/well CellTiter96® Aqueous One Solution Cell Growth Assay reagent was added to the plate and incubated at 37 °C for 8 h, absorbance was measured at […] and relative cell viability was calculated according to Equation (5). Relative content of inflammatory cytokines (%) = (A1/A2)/A3 × 100%(4) where A1 is the concentrations value of inflammatory cytokines of each group, A2 is the relative cell viability of each group (model group is 100) and A3 is the concentration of inflammatory cytokines of model group. Cell viability rate (%) = B1/B2 × 100%(5) where B1 is the OD value of each fraction group or positive control group and B2 is the OD value of the model control.

IL-1β = IL-1β secretion in LPS-stimulated RAW 264.7 macrophages (ELISA); assay type: cell-based, mouse; conditions: 40 µM, LPS 1 µg/mL, 48 h, vs model control (p < 0.0001)
Procedure: as §1

BSA = assay: Prevention of AAPH-induced protein oxidative damage; set-up: species or system Bovine; conditions: AAPH 160 mM; residual BSA
Procedure: The protective activities of T. grandis methanolic extract, different fractions and its compounds 15 and 23 on protein oxidative damage were carried out using the method of Yang et al.. Initially, 20 μL BSA solutions (1 mg/mL) in PBS (0.1 M, pH 6.8) were mixed with different concentrations of fractions (40 μL) and compounds (40 μL) and incubated in water at 37 °C for 30 min. Then, 40 μL AAPH (160 mM) was added to the mixture and the reaction continued for 4 h. The control group used the same volume of PBS (0.1 M, pH 6.8) to replace AAPH. The pre-treated samples were added to 5 × SDS loading buffer and treated in water at 95 °C for 15 min. […] After electrophoresis, the gels were stained with Coomassie brilliant blue R-250 dye (0.25%, w/v), and then the gels were decolorized with the decolorizing solution. Finally, images were taken using the SDS-PAGE gel imaging system (ChampChemi 610, China) and the grayscale of Western blot was analyzed using Image J software.

TNF-α = TNF-α secretion in LPS-stimulated RAW 264.7 macrophages (ELISA); assay type: cell-based, mouse; conditions: 40 µM, LPS 1 µg/mL, 48 h, vs model control (p < 0.01)
Procedure: as §1

SMILES: COc1cc(C2Oc3c(OC)cc(CCCO)cc3C2CO)ccc1O (stereo not drawn) [Compound 19, rel-(2α,3β)-7-O-methylcedrusin]
ABTS Assay [1]: 0.85 ± 0.03 ^a mmol Trolox/L
FRAP Assay [2]: 0.25 ± 0.01 ^b mmol Trolox/L
Inhibitory Rate (%) (α-glucosidase): 57.40 ± 1.32 ^bc %
EC50 [3]: 6.17 ± 0.06 µM
concentration at which a protective effect against DNA oxidative damage begins (pBR322 DNA): 5.0 mM

SMILES: COC(=O)c1cc(O)c2c(c1)C(=O)c1ccccc1C2=O [Compound 13, 3-carbomethoxy-1-hydroxy-9,10-anthraquinone]
ABTS Assay [1]: 0.04 ± 0.00 ^d mmol Trolox/L
FRAP Assay [2]: 0.01± 0.01 ^c mmol Trolox/L
Inhibitory Rate (%) (α-glucosidase): 13.84 ± 0.93 ^d %
IC50 (α-glucosidase): > 50 µM
EC50 [3]: 3.56 ± 0.53 µM
effect on IL-6 inflammatory factor expression (IL-6): significant activities in reducing the expression
effect on IL-1β inflammatory factor level (IL-1β): significant decrease

SMILES: C[C@@H]1O[C@@H](O[C@@H]2[C@@H](O)[C@H](OCCc3ccc(O)c(O)c3)O[C@H](CO)[C@H]2OC(=O)/C=C/c2ccc(O)c(O)c2)[C@H](O)[C@H](O)[C@H]1O [Compound 15, verbascoside]
ABTS Assay [1]: 1.10 ± 0.77 ^a mmol Trolox/L
FRAP Assay [2]: 1.22 ± 0.11 ^a mmol Trolox/L
Inhibitory Rate (%) (α-glucosidase): 18.30 ± 2.22 ^cd %
IC50 (α-glucosidase): > 50 µM
EC50 [3]: 1.99 ± 0.34 µM
concentration at which a protective effect against protein oxidative damage begins (BSA): 40 µM
concentration at which a protective effect against DNA oxidative damage begins (pBR322 DNA): 0.6 mM

SMILES: O=C(O)c1c[nH]c2ccccc12 [Compound 16, 1H-indole-3-carboxylic acid]
ABTS Assay [1]: 0.78 ± 0.01 ^a mmol Trolox/L
FRAP Assay [2]: 0.28 ± 0.01 ^b mmol Trolox/L
Inhibitory Rate (%) (α-glucosidase): 12.53 ± 0.76 ^d %
IC50 (α-glucosidase): > 50 µM
EC50 [3]: 12.3 ± 0.53 µM

The remaining molecules from weak to strong by EC50 [3], led by results:

Inhibitory Rate (%) (α-glucosidase): 68.54 ± 2.90 ^b %
IC50 (α-glucosidase): 14.2 ± 0.34 µM
EC50 [3]: 31.5 ± 1.75 µM
SMILES: COC(=O)[C@H]1O[C@@H](Oc2cc(O)c3c(=O)cc(-c4ccc(O)cc4)oc3c2)[C@H](O)[C@@H](O)[C@@H]1O [Compound 4, apigenin-7-O-β-D-glucuronide methyl ester]
ABTS Assay [1]: 0.21 ± 0.01 ^b mmol Trolox/L
FRAP Assay [2]: 0.02 ± 0.00 ^c mmol Trolox/L

Inhibitory Rate (%) (α-glucosidase): 12.96 ± 2.08 ^d %
IC50 (α-glucosidase): > 50 µM
EC50 [3]: 22.1 ± 1.24 µM
SMILES: O=c1cc(-c2ccc(O)c(O)c2)oc2cc(O)cc(O)c12 [Compound 6, luteolin]
ABTS Assay [1]: 0.99 ± 0.07 ^a mmol Trolox/L
FRAP Assay [2]: 0.37 ± 0.05 ^b mmol Trolox/L

Inhibitory Rate (%) (α-glucosidase): 40.30 ± 0.76 ^c %
IC50 (α-glucosidase): > 50 µM
EC50 [3]: 8.66 ± 0.43 µM
SMILES: COc1cc(C(O)C(CO)Oc2c(OC)cc(/C=C/CO)cc2OC)cc(OC)c1O (stereo not drawn) [Compound 20, 7S,8R-syringylglycerol-8-O-4′-(synapyl alcohol) ether]
ABTS Assay [1]: 0.67 ± 0.01 ^b mmol Trolox/L
FRAP Assay [2]: 0.29 ± 0.00 ^b mmol Trolox/L

Inhibitory Rate (%) (α-glucosidase): 22.91 ± 1.10 ^c %
IC50 (α-glucosidase): > 50 µM
EC50 [3]: 8.45 ± 0.57 µM
SMILES: CC1CCC2(C(=O)OC3OC(CO)C(O)C(O)C3OC3OC(CO)C(O)C(O)C3O)CCC3(C)C(=CCC4C5(C)CC(O)C(O)C(C)(CO)C5CCC43C)C2C1(C)O [Compound 18, 2β,3β,19α,23-tetrahydroxy-urs-12-en-28-O-[β-D-glucopyranosyl (1-2)-β-D-glucopyranosyl] ester]
FRAP Assay [2]: 0.39 ± 0.00 ^b mmol Trolox/L
effect on IL-6 inflammatory factor expression (IL-6): significant activities in reducing the expression
effect on TNF-α inflammatory factor level (TNF-α): could decrease
effect on IL-1β inflammatory factor level (IL-1β): significant decrease

Inhibitory Rate (%) (α-glucosidase): 10.62 ± 1.39 ^d %
IC50 (α-glucosidase): > 50 µM
EC50 [3]: 8.09 ± 1.05 µM
SMILES: O=c1cc(-c2ccc(O)c(O)c2)oc2cc(O[C@@H]3O[C@H](CO)[C@@H](O)[C@H](O)[C@H]3O)cc(O)c12 [Compound 1, luteolin-7-O-β-D-glucoside]
ABTS Assay [1]: 0.08 ± 0.01 ^d mmol Trolox/L
effect on IL-6 inflammatory factor expression (IL-6): significant activities in reducing the expression
effect on TNF-α inflammatory factor level (TNF-α): could decrease
effect on IL-1β inflammatory factor level (IL-1β): significant decrease
